Data published in US20210179680A1, “POLYPEPTIDE, DERIVATIVES THEREOF, AND APPLICATION THEREOF IN PREPARATION OF DRUGS HAVING RESISTANCE TO PULMONARY FIBROSIS” (priority 2016, published 2021).
Bridge positions count the residues as written; N and C are the ends. Square brackets hold non-standard residues; d marks the D form. Peptide text beside a SMILES is read from it. S5 = C=CCCC[C@](C)(N)C(=O)O

Tested on: mice with bleomycin-induced pulmonary fibrosis
Test: Hydroxyproline content in lung of mice with pulmonary fibrosis
Type: in vivo, C57BL/6 mice
Details: 2 mg/kg i.p.; for hydroxyproline content (μg/mg protein): left lung lobes, chloramine-T method; for content of hydroxyproline in the lungs (in words): versus bleomycin group
Procedure: Male C57BL/6 mice were fasted overnight, then anesthetized with 45 mg/kg sodium pentobarbital by injection intraperitoneally (i.p.), and intratracheally injected with bleomycin at a dose of 3 U/kg. The specific operation steps are as follows: cut the neck skin of the mouse with as little trauma as possible, expose the trachea with the assistance of elbow ophthalmic forceps, puncture the trachea and inject about 50 μL of bleomycin into the trachea with a microsyringe, rotate the mouse quickly and stand it upright for 5 minutes in order to make bleomycin evenly enter the left and right lobe, thereby constructing an animal model. The whole operation was performed at a surgical table at about […]. Mice in the sham operation group were intratracheally injected with an equal amount of physiological saline for injection.
(§1) Hydroxyproline accounts for 13.4% (w/w) of collagen, and extremely small amount of elastin, while it is absent in other proteins. […] Pulmonary fibrosis models were prepared according to the method described in Example 2 and administered in groups according to Table 3. The content of hydroxyproline in the lobes of left lung of the animals was measured 28 days later, and the condition of pulmonary fibrosis was evaluated.
The specific method is as follows: the mice in the animal model prepared in Example 2 was feed in a SPF animal room and treated with polypeptide according to the dosing schedule of Table 3, and all left lobes of lung of the experimental animal was taken on the 21st day after the animal model was constructed and the wet weight was recorded. Then 10% (w/w) tissue homogenate was prepared by ultrasonic homogenization using physiological saline. About 150 μL of homogenate supernatant was taken, and 500 μL of alkali hydrolysate was added (provided by Hydroxyproline alkaline hydrolysis kit of Nanjing Jiancheng Bioengineering Technology Co., Ltd.). After vortex mixing, the mixture was treated with alkaline hydrolysis for 40 min under conditions of 120° C., 0.1 Kpa. After adjusting the pH value, the volume was held constant, and the supernatant was taken after performing activated carbon treatment. The hydroxyproline was determined according to the chloramine-T method (the method of the present example refers to the instruction provided with kit, which was purchased from Nanjing Jiancheng Bioengineering Technology Co., Ltd.). […] In FIG. 10, “##” represents that P value is less than 0.01 when comparing the content of hydroxyproline in the administration group with that in the sham operation group; and “*” represents that P value is less than 0.05 and“**” represents that P value is less than 0.01 when comparing the content of hydroxyproline in the administration group with that in bleomycin group.
as §1, with “collagen, and accounts for extremely small” for “collagen, and extremely small”, “in the all lobes of” for “in the lobes of”
The specific method is as follows: the mice in the animal model prepared in Example 2 was feed in an SPF animal room and treated with polypeptide according to the dosing schedule of Table 3, and all the left lobes of lung of the experimental animal was taken on the 21st day after the animal model was constructed and the wet weight was recorded. Then 10% (w/w) tissue homogenate was prepared by ultrasonic homogenization using physiological saline. About 150 μL of homogenate supernatant was taken, and 500 μL of alkali hydrolysate was added (provided by Hydroxyproline alkaline hydrolysis kit of Nanjing Jiancheng Bioengineering Technology Co., Ltd.). After vortex mixing, the mixture was treated with alkaline hydrolysis for 40 min under conditions of 120° C., 0.1 Kpa. […]

Row | Compound | hydroxyproline content (μg/mg protein) (Table 3 groups) | hydroxyproline content (μg/mg protein) (S19-S21 groups) | content of hydroxyproline in the lungs (in words) (S19-S21 groups)
1 | CSCC[C@H](NC(=O)[C@H](CC(C)C)NC(=O)[C@@H](N)Cc1c[nH]cn1)C(=O)N[C@@H](C)C(=O)N[C@@]1(C)CCCC=CCCC[C@@](C)(C(=O)N[C@@H](CCCCN)C(=O)N[C@@H](CCCCN)C(=O)N[C@@H](CC(C)C)C(=O)N[C@@H](CCCCN)C(=O)N[C@@H](CCCCN)C(=O)N[C@@H](CCCNC(=N)N)C(=O)O)NC(=O)[C@H](CS)NC(=O)[C@H]([C@@H](C)O)NC(=O)[C@H](Cc2ccccc2)NC1=O [S5, His-Leu-Met-Ala-S5-Phe-Thr-Cys-S5-Lys-Lys-Leu-Lys-Lys-Arg] (H-HLMA[S5]FTC[S5]KKLKKR-OH; staple 5-9; N-terminus and C-terminus assumed) | 0.6575 |  | 
2 | CSCC[C@@H]1NC(=O)[C@@](C)(NC(=O)[C@@H](N)Cc2c[nH]cn2)CCCC=CCCC[C@@](C)(C(=O)N[C@H](C(=O)N[C@@H](CS)C(=O)N[C@@H](C)C(=O)N[C@@H](CCCCN)C(=O)N[C@@H](CCCCN)C(=O)N[C@@H](CC(C)C)C(=O)N[C@@H](CCCCN)C(=O)N[C@@H](CCCCN)C(=O)N[C@@H](CCCNC(=N)N)C(=O)O)[C@@H](C)O)NC(=O)[C@H](CS)NC(=O)[C@H](C)NC1=O [S2, His-S5-Met-Ala-Cys-S5-Thr-Cys-Ala-Lys-Lys-Leu-Lys-Lys-Arg] (H-H[S5]MAC[S5]TCAKKLKKR-OH; staple 2-6; N-terminus and C-terminus assumed) | 0.7063 |  | 
3 | CSCC[C@H](NC(=O)[C@H](CC(C)C)NC(=O)[C@@H](N)Cc1c[nH]cn1)C(=O)N[C@@H](C)C(=O)N[C@@H](CS)C(=O)N[C@@H](Cc1ccccc1)C(=O)N[C@H](C(=O)N[C@@H](CS)C(=O)N[C@@]1(C)CCCC=CCCC[C@@](C)(C(=O)N[C@@H](CCCCN)C(=O)N[C@@H](CCCNC(=N)N)C(=O)O)NC(=O)[C@H](CC(C)C)NC(=O)[C@H](CCCCN)NC(=O)[C@H](CCCCN)NC1=O)[C@@H](C)O [S9, His-Leu-Met-Ala-Cys-Phe-Thr-Cys-S5-Lys-Lys-Leu-S5-Lys-Arg] (H-HLMACFTC[S5]KKL[S5]KR-OH; staple 9-13; N-terminus and C-terminus assumed) | 0.7212 |  | 
4 | CSCC[C@@H]1NC(=O)[C@H](CC(C)C)NC(=O)[C@@](C)(N)CCCC=CCCC[C@@](C)(C(=O)N[C@@H](Cc2ccccc2)C(=O)N[C@H](C(=O)N[C@@H](CS)C(=O)N[C@@H](C)C(=O)N[C@@H](CCCCN)C(=O)N[C@@H](CCCCN)C(=O)N[C@@H](CC(C)C)C(=O)N[C@@H](CCCCN)C(=O)N[C@@H](CCCCN)C(=O)N[C@@H](CCCNC(=N)N)C(=O)O)[C@@H](C)O)NC(=O)[C@H](C)NC1=O [S1, S5-Leu-Met-Ala-S5-Phe-Thr-Cys-Ala-Lys-Lys-Leu-Lys-Lys-Arg] (H-[S5]LMA[S5]FTCAKKLKKR-OH; staple 1-5; N-terminus and C-terminus assumed) | 0.7087 |  | 
5 | CSCC[C@H](NC(=O)[C@H](CC(C)C)NC(=O)[C@@H](N)Cc1c[nH]cn1)C(=O)N[C@@H](C)C(=O)N[C@@H](CS)C(=O)N[C@@H](Cc1ccccc1)C(=O)N[C@H](C(=O)N[C@@H](CS)C(=O)N[C@@H](C)C(=O)N[C@@]1(C)CCCC=CCCC[C@@](C)(C(=O)N[C@@H](CCCNC(=N)N)C(=O)O)NC(=O)[C@H](CCCCN)NC(=O)[C@H](CC(C)C)NC(=O)[C@H](CCCCN)NC1=O)[C@@H](C)O [S10, His-Leu-Met-Ala-Cys-Phe-Thr-Cys-Ala-S5-Lys-Leu-Lys-S5-Arg] (H-HLMACFTCA[S5]KLK[S5]R-OH; staple 10-14; N-terminus and C-terminus assumed) | 0.8163 |  | 
6 | CSCC[C@H](NC(=O)[C@H](CC(C)C)NC(=O)[C@@H](N)Cc1c[nH]cn1)C(=O)N[C@@]1(C)CCCC=CCCC[C@@](C)(C(=O)N[C@@H](C)C(=O)N[C@@H](CCCCN)C(=O)N[C@@H](CCCCN)C(=O)N[C@@H](CC(C)C)C(=O)N[C@@H](CCCCN)C(=O)N[C@@H](CCCCN)C(=O)N[C@@H](CCCNC(=N)N)C(=O)O)NC(=O)[C@H]([C@@H](C)O)NC(=O)[C@H](Cc2ccccc2)NC(=O)[C@H](CS)NC1=O [S4, His-Leu-Met-S5-Cys-Phe-Thr-S5-Ala-Lys-Lys-Leu-Lys-Lys-Arg] (H-HLM[S5]CFT[S5]AKKLKKR-OH; staple 4-8; N-terminus and C-terminus assumed) | 0.65 |  | 
7 | CSCC[C@H](NC(=O)[C@H](CC(C)C)NC(=O)[C@@H](N)Cc1c[nH]cn1)C(=O)N[C@@H](C)C(=O)N[C@@H](CS)C(=O)N[C@@H](Cc1ccccc1)C(=O)N[C@H](C(=O)N[C@@]1(C)CCCC=CCCC[C@@](C)(C(=O)N[C@@H](CCCCN)C(=O)N[C@@H](CCCCN)C(=O)N[C@@H](CCCNC(=N)N)C(=O)O)NC(=O)[C@H](CCCCN)NC(=O)[C@H](CCCCN)NC(=O)[C@H](C)NC1=O)[C@@H](C)O [S8, His-Leu-Met-Ala-Cys-Phe-Thr-S5-Ala-Lys-Lys-S5-Lys-Lys-Arg] (H-HLMACFT[S5]AKK[S5]KKR-OH; staple 8-12; N-terminus and C-terminus assumed) | 0.825 |  | 
8 | S20: chimeric polypeptide TAT-MR2, amino acid sequence SEQ ID NO: 20 (YGRKKRRQRRRGGHLMACFTCAKKLKKR; chimeric polypeptide TAT-MR2 S20) |  | 0.7443 | reduce hydroxyproline content
9 | S19: chimeric polypeptide Pep2-MR2, amino acid sequence SEQ ID NO: 19 (HLYVSPWGGHLMACFTCAKKLKKR; chimeric polypeptide Pep2-MR2 S19) |  | 0.5637 | reduce hydroxyproline content
10 | CC(C)C[C@H](NC(=O)[C@H](CCCCN)NC(=O)[C@H](CCCCN)NC(=O)[C@H](C)NC(=O)[C@H](CS)NC(=O)[C@]1(C)CCCC=CCCC[C@](C)(NC(=O)[C@H](CC(C)C)NC(=O)[C@@H](N)Cc2c[nH]cn2)C(=O)N[C@@H](C)C(=O)N[C@@H](CS)C(=O)N[C@@H](Cc2ccccc2)C(=O)N1)C(=O)N[C@@H](CCCCN)C(=O)N[C@@H](CCCCN)C(=O)N[C@@H](CCCNC(=N)N)C(=O)O [S3, His-Leu-S5-Ala-Cys-Phe-S5-Cys-Ala-Lys-Lys-Leu-Lys-Lys-Arg] (H-HL[S5]ACF[S5]CAKKLKKR-OH; staple 3-7; N-terminus and C-terminus assumed) | 0.8287 |  | 
11 | CSCC[C@H](NC(=O)[C@H](CC(C)C)NC(=O)[C@@H](N)Cc1c[nH]cn1)C(=O)N[C@@H](C)C(=O)N[C@@H](CS)C(=O)N[C@@H](Cc1ccccc1)C(=O)N[C@H](C(=O)N[C@@H](CS)C(=O)N[C@@H](C)C(=O)N[C@@H](CCCCN)C(=O)N[C@@H](CCCCN)C(=O)N[C@@H](CC(C)C)C(=O)N[C@@H](CCCCN)C(=O)N[C@@H](CCCCN)C(=O)N[C@@H](CCCNC(=N)N)C(=O)O)[C@@H](C)O [MR2] (H-HLMACFTCAKKLKKR-OH; N-terminus and C-terminus assumed) | 0.9087 |  | 
12 | CSCC[C@H](NC(=O)[C@H](CC(C)C)NC(=O)[C@@H](N)Cc1c[nH]cn1)C(=O)N[C@@H](C)C(=O)N[C@@H](CS)C(=O)N[C@@H](Cc1ccccc1)C(=O)N[C@H](C(=O)N[C@@H](CS)C(=O)N[C@@H](C)C(=O)N[C@@H](CCCCN)C(=O)N[C@@]1(C)CCCC=CCCC[C@@](C)(C(=O)O)NC(=O)[C@H](CCCCN)NC(=O)[C@H](CCCCN)NC(=O)[C@H](CC(C)C)NC1=O)[C@@H](C)O [S11, His-Leu-Met-Ala-Cys-Phe-Thr-Cys-Ala-Lys-S5-Leu-Lys-Lys-S5] (H-HLMACFTCAK[S5]LKK[S5]-OH; staple 11-15; N-terminus and C-terminus assumed) | 0.7725 |  | 
13 | S21: chimeric polypeptide Antp-MR2, amino acid sequence SEQ ID NO: 21 (RQIKIWFQNRRMKWKKGGHLMACFTCAKKLKKR; chimeric polypeptide Antp-MR2 S21) |  | 0.7488 | reduce hydroxyproline content
